Experimental findings from patent publication US20100184683A1, “ANTIBACTERIAL AND ANTIFUNGAL PEPTIDES” (C3 JIAN, INC., priority 2009, published 2010) are described below.

One assay deals with E. coli. Format: cell-based, Escherichia coli. Here is the method:
(§1) In certain embodiments the MIC assays are performed as described herein in the Examples. For each organism, the media and growth conditions utilized is detailed in Table 8.
(§2) In certain embodiments the MIC assays are performed as follows: For each organism, the media and growth conditions utilized is detailed in Table 8.

In a further assay the test system is S. pneumoniae. It counts as cell-based, Streptococcus pneumoniae. Here is the method: as §1, §2
The next assay has as its system A. niger. Format: cell-based, Aspergillus niger. The following applies: A. niger; Potato Dextrose Agar, 25° C., aerobic; inoculum 10^5 CFU/ml; 18-24 h or 48 h. The protocol: as §1, §2
The subject of a further assay is T. rubrum. It counts as cell-based, Trichophyton rubrum. The protocol:
as §1, §2

The next assay relates to S. mutans. Format: cell-based, Streptococcus mutans. Here is the method: as §1, §2
A further assay concerns C. difficile. It counts as cell-based, Clostridium difficile. The following applies: C. difficile; BHIS, 37° C., anaerobic; inoculum 10^5 CFU/ml; 18-24 h or 48 h. The protocol: as §1, §2
A further assay relates to S. epidermidis. It counts as cell-based. Here is the method: as §1, §2
In the next assay the test system is P. aeruginosa. It counts as cell-based, Pseudomonas aeruginosa. The protocol:
as §1, §2

The subject of a further assay is C. jeikeium. Nature of the assay: MIC assay, C. jeikeium. Format: cell-based, Corynebacterium jeikium. The following applies: TSB supplemented with 1% Tween-80, 37° C., aerobic, inoculum 10^6 CFU/ml, 18-24 h or 48 h. The protocol:
as §1, §2

A further assay has as its system B. subtilis. It counts as cell-based, Bacillus subtilis. The following applies: B. subtilis; BHI, 30° C., aerobic; inoculum 10^5 CFU/ml; 18-24 h or 48 h. An outline of the steps: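 Organism-specific media and growth conditions are used for MIC testing of every strain.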
The test system of another assay is A. baumannii. It counts as cell-based, Acinetobacter baumannii. Particulars: A. baumannii; LB, 30° C., anaerobic; inoculum 10^5 CFU/ml; 18-24 h or 48 h. Here is the method:
as §1, §2

Another assay deals with P. gingivalis. It counts as cell-based, Porphyromonas gingivalis. Here is the method:
as §1, §2

A further assay relates to F. nucleatum. Format: cell-based, Fusobacterium nucleatum. The protocol:
as §1, §2

In the next assay the test system is C. albicans. It counts as cell-based, Candida albicans. The protocol:
as §1, §2

The test system of a further assay is A. naeslundii. Format: cell-based, Actinomyces naeslundii. The protocol: as §1, §2
The subject of the next assay is MRSA. It counts as cell-based, Methicillin-resistant Staphylococcus aureus. The protocol:
as §1, §2

In the next assay the test system is M. furfur ATCC 14521. The following applies: 5 μM peptide, after 15 min of treatment, 10^6 cells/ml, ATCC medium 1072, 30° C. The protocol: FIG. 1. Killing kinetics of PF-S028 L and D versions against M. furfur were determined using standard time-kill methods previously detailed (Eckert et al. (2006) Antimicrob Agents Chemother., 50: 1480-1488). Briefly, a log phase culture of M. furfur ATCC 14521 was diluted to 10^6 cells/ml in ATCC medium 1072. To the reaction tubes 5 μM of either PF-S028 L or PF-S028 D were added. A reaction tube to which 4 μl of 50% methanol served as the negative control. Reaction tubes were stored at 30° C. and at indicated intervals an aliquot was removed from the reaction tube and placed in a recovery tube where peptide was removed by dilution. An aliquot from the recovery tube was plated on ATCC medium 1072 agar plates and incubated at 30° C. until visible colonies formed. Colony forming units were calculated for the negative control (no peptide), PF-S028 L, and PF-S028 D treated cultures.
In some cases killing kinetic experiments were then conducted. Killing kinetics of PF-S028 L and D versions against M. furfur were determined as described in Eckert et al. (2006) Antimicrob Agents Chemother., 50: 1480-1488. Briefly, a log phase culture of M. furfur ATCC 14521 was diluted to 10^6 cells/ml in ATCC medium 1072. To the reaction tubes 5 μM of either PF-S028 L or PF-S028 D were added. […] Colony forming units were calculated for the negative control (no peptide), PF-S028 L, and PF-S028 D treated cultures.

Values after ≈ are worked out from the molar mass of the structure shown. Like-named read-outs stand apart in the source and are kept apart here. Ends that are not written are not given here. Peptide text beside a SMILES is read from it.

As a reminder, the MIC is the smallest concentration in the dilution series that meets the test's criterion for growth inhibition. High values mean a less susceptible organism, low ones a more susceptible organism. For the molecule “TKKIELKRFVDAFVKKSYENYILERELKKLIKAINEELPTK [PF-600]”, the MIC in the assay on E. coli and in the assay with S. pneumoniae was 50 µM in each case.

With YIQFHLNQQPRPKVKKIKIFL [PF-531], the MIC against A. niger amounted to 25 µM; against T. rubrum (T. rubrum, Potato Dextrose Agar, 25° C., aerobic, inoculum 10^5 CFU/ml, 18-24 h or 48 h) it was 50 µM; with S. mutans (S. mutans, TH supplemented with 1% sucrose, 37° C., anaerobic, inoculum 10^5 CFU/ml, 18-24 h or 48 h) it was 12.5 µM; with C. difficile it was 12.5 µM; against S. epidermidis (S. epidermidis, BHI supplemented with 0.25% glucose, 37° C., aerobic, inoculum 10^5 CFU/ml, 18-24 h or 48 h) it was 50 µM; with P. aeruginosa (P. aeruginosa, MH, 37° C., aerobic, inoculum 10^5 CFU/ml, 18-24 h or 48 h) it was 50 µM. For the same molecule, the MIC in the assay with C. jeikeium was found to be 6.25 µM; against B. subtilis it was 25 µM; against A. baumannii, 25 µM.

For `CC[C@H](C)[C@H](NC(=O)[C@H](C)NC(=O)[C@H](CC(N)=O)NC(=O)[C@@H](NC(=O)[C@H](CC(C)C)NC(=O)[C@H](CCCNC(=N)N)NC(=O)[C@H](Cc1ccc(O)cc1)NC(=O)[C@@H](N)CC(N)=O)C(C)C)C(=O)N[C@@H](Cc1ccccc1)C(=O)N[C@@H](CO)C(=O)N[C@@H](CCCCN)C(=O)N[C@H](C(=O)N[C@@H](Cc1ccccc1)C(=O)N[C@@H](CCCCN)C(=O)N[C@@H](CCCCN)C(=O)N[C@@H](CCCCN)C(=O)N[C@@H](Cc1ccccc1)C(=O)N[C@H](C(=O)N[C@@H](CCCCN)C(=O)N[C@@H](Cc1ccccc1)C(=O)O)[C@@H](C)CC)[C@@H](C)CC` [PF-C252] (H-NYRLVNAIFSKIFKKKFIKF-OH; N-terminus and C-terminus assumed), the MIC in the assay with T. rubrum stood at 50 µM (≈ 125 µg/mL); against P. gingivalis, 25 µM (≈ 62.6 µg/mL); in the assay with F. nucleatum it was 25 µM (≈ 62.6 µg/mL); against S. mutans it was 12.5 µM (≈ 31.3 µg/mL); against C. albicans, 25 µM (≈ 62.6 µg/mL); in the assay on S. epidermidis it was 25 µM (≈ 62.6 µg/mL). The MIC in the assay with P. aeruginosa turned out to be 50 µM (≈ 125 µg/mL); against A. naeslundii, 25 µM (≈ 62.6 µg/mL); with MRSA it was 50 µM (≈ 125 µg/mL).

For `CC[C@H](C)[C@H](NC(=O)[C@H](CCC(N)=O)NC(=O)[C@H](CCCCN)NC(=O)[C@H](CC(C)C)NC(=O)[C@H](CC(C)C)NC(=O)[C@@H]1CCCN1C(=O)[C@H](CCSC)NC(=O)[C@H](CC(C)C)NC(=O)[C@H](CO)NC(=O)[C@H](CCCCN)NC(=O)CNC(=O)[C@@H](N)CCCCN)C(=O)N[C@@H](CC(N)=O)C(=O)N[C@@H](CCC(N)=O)C(=O)N[C@@H](Cc1c[nH]c2ccccc12)C(=O)NCC(=O)N[C@@H](CCCCN)C(=O)N[C@@H](CC(C)C)C(=O)N[C@@H](Cc1ccc(O)cc1)C(=O)N[C@@H](CC(C)C)C(=O)O` [PF-C239] (H-KGKSLMPLLKQINQWGKLYL-OH; N-terminus and C-terminus assumed), the MIC in the assay with P. gingivalis amounted to 50 µM (≈ 118 µg/mL); with F. nucleatum it was 50 µM (≈ 118 µg/mL); in the assay on S. mutans it was 50 µM (≈ 118 µg/mL); in the assay on A. naeslundii, 25 µM (≈ 59 µg/mL).

Turning to `CC[C@H](C)[C@H](NC(=O)[C@H](CCCCN)NC(=O)CNC(=O)[C@H](CC(N)=O)NC(=O)[C@H](CCC(N)=O)NC(=O)[C@H](Cc1ccc(O)cc1)NC(=O)[C@H](C)NC(=O)[C@H](CCCCN)NC(=O)[C@H](C)NC(=O)[C@H](Cc1ccccc1)NC(=O)[C@H](CC(=O)O)NC(=O)[C@H](CCC(N)=O)NC(=O)[C@H](Cc1c[nH]cn1)NC(=O)[C@H](CO)NC(=O)[C@H](CC(N)=O)NC(=O)[C@H](Cc1ccccc1)NC(=O)[C@H](CO)NC(=O)[C@H](CC(C)C)NC(=O)[C@H](C)NC(=O)[C@@H](NC(=O)[C@H](CC(N)=O)NC(=O)[C@@H](NC(=O)[C@H](CCCCN)NC(=O)[C@H](CCCCN)NC(=O)[C@H](CCC(=O)O)NC(=O)[C@H](CCCCN)NC(=O)[C@H](CC(=O)O)NC(=O)[C@H](CC(C)C)NC(=O)[C@H](CCC(=O)O)NC(=O)[C@H](CCCCN)NC(=O)[C@H](CO)NC(=O)[C@H](C)NC(=O)[C@H](CC(N)=O)NC(=O)[C@H](CC(C)C)NC(=O)[C@@H](NC(=O)[C@H](CCCCN)NC(=O)[C@H](CO)NC(=O)[C@H](CCC(=O)O)NC(=O)[C@@H](N)Cc1ccccc1)[C@@H](C)CC)C(C)C)[C@@H](C)O)C(=O)O` [PF-606] (H-FESKILNASKELDKEKKVNTALSFNSHQDFAKAYQNGKI-OH; N-terminus and C-terminus assumed), the MIC against E. coli, with S. mutans, with S. epidermidis, in the assay with S. pneumoniae and against MRSA was 50 µM (≈ 222 µg/mL) each time.

For the molecule `CC[C@@H](C)[C@@H](NC(=O)[C@H](NC(=O)[C@@H](CO)NC(=O)CN)C(C)C)C(=O)N[C@H](CCCCN)C(=O)N[C@H](CCCCN)C(=O)N[C@H](CCCNC(=N)N)C(=O)N[C@H](CCCNC(=N)N)C(=O)N[C@H](CCCCN)C(=O)N[C@H](CCCNC(=N)N)C(=O)N[C@H](CCSC)C(=O)N[C@H](CO)C(=O)N[C@H](CCCCN)C(=O)N[C@H](CCCCN)C(=O)N[C@H](CCCCN)C(=O)N[C@H](Cc1c[nH]cn1)C(=O)N[C@H](CCCNC(=N)N)C(=O)N[C@H](CCCCN)C(=O)N[C@H](CCSC)C(=O)N[C@H](CC(C)C)C(=O)N[C@H](CCCNC(=N)N)C(=O)N[C@H](CCCNC(=N)N)C(=O)N[C@@H](C(=O)N[C@H](CCCNC(=N)N)C(=O)N[C@@H](C(=O)N[C@H](CCC(N)=O)C(=O)N[C@H](CCCNC(=N)N)C(=O)N[C@H](CCCNC(=N)N)C(=O)N[C@H](CCCCN)C(=O)N[C@H](CC(C)C)C(=O)NCC(=O)N[C@H](CCCCN)C(=O)O)C(C)C)[C@H](C)O` [PF-S028 D], the M. furfur killed entry in the assay on M. furfur ATCC 14521 is “over 99%”.

`CC[C@H](C)[C@H](NC(=O)[C@@H](NC(=O)[C@H](CO)NC(=O)CN)C(C)C)C(=O)N[C@@H](CCCCN)C(=O)N[C@@H](CCCCN)C(=O)N[C@@H](CCCNC(=N)N)C(=O)N[C@@H](CCCNC(=N)N)C(=O)N[C@@H](CCCCN)C(=O)N[C@@H](CCCNC(=N)N)C(=O)N[C@@H](CCSC)C(=O)N[C@@H](CO)C(=O)N[C@@H](CCCCN)C(=O)N[C@@H](CCCCN)C(=O)N[C@@H](CCCCN)C(=O)N[C@@H](Cc1c[nH]cn1)C(=O)N[C@@H](CCCNC(=N)N)C(=O)N[C@@H](CCCCN)C(=O)N[C@@H](CCSC)C(=O)N[C@@H](CC(C)C)C(=O)N[C@@H](CCCNC(=N)N)C(=O)N[C@@H](CCCNC(=N)N)C(=O)N[C@H](C(=O)N[C@@H](CCCNC(=N)N)C(=O)N[C@H](C(=O)N[C@@H](CCC(N)=O)C(=O)N[C@@H](CCCNC(=N)N)C(=O)N[C@@H](CCCNC(=N)N)C(=O)N[C@@H](CCCCN)C(=O)N[C@@H](CC(C)C)C(=O)NCC(=O)N[C@@H](CCCCN)C(=O)O)C(C)C)[C@@H](C)O` [PF-S028 L]: the M. furfur killed in the assay with M. furfur ATCC 14521 was found to be 39%.
